Paper PMC11845477, “Exploring the principles behind antibiotics with limited resistance” (Nature Communications, 2025)

Key:
[1] = system: E. coli BW25113-ΔacrB; assay: AcrAB-TolC efflux deficiency screen, relative MIC; format: cell-based, Escherichia coli; settings: ΔacrB vs wild-type
Protocol: Fig. 6 The impact of AcrAB-TolC activity on antibiotic susceptibility. E. coli strains with AcrAB-TolC depletion (BW25113-ΔacrB) and overexpression (BW25113: pUCacrAB) were treated with various antibiotics, and the level of resistance was determined as minimum inhibitory concentration (MIC) relative to a wild-type strain, presented on a logarithmic scale (log2). Each bar represents the mean resistance level (susceptibility, i.e., level of resistance < 0; and resistance, i.e., level of resistance > 0) to antibiotics induced by acrAB overexpression (blue bars; E. coli with a multicopy plasmid of the acrAB genes (pUCacrAB)) and acrB deletion (red bars; mutant E. coli with acrB gene deletion (ΔacrB)) compared to the wild-type. Data are presented as mean values of 3 biological replicates ± SD. […] Detailed information on antibiotic and bacterial strain abbreviations is provided in Supplementary Data 1. Source data are provided as a Source Data file. For information on mode of action groups, refer to Table 1.
For the efflux deficiency screen, the ΔacrB mutant of E. coli K12 BW25113[86] and its equivalent wild-type control strain with intact gene were utilized. In contrast, BW25113 carrying a multicopy acrAB plasmid (pUCacrAB)[87] and its control strain harboring an empty pUC118 plasmid were used to overexpress the acrAB efflux system. According to established protocols via P1 transduction, the suitable acrB deletion mutant (ΔacrB BW25113) was created, while the pUCacrAB plasmid was kindly provided by Kunihiko Nishino and Akihito Yamaguchi (Osaka University, Osaka, Japan). In a prior study, both strains were employed. Since the copy number of the plasmid carrying the efflux pump is controlled by native promoters, external induction is unnecessary.
Antibiotic susceptibilities of these strains were evaluated using a modified version of the standard broth dilution method. In 96-well microtiter plates containing fresh MHB medium, or supplemented MS medium in case of SCH79797, ten-step serial dilutions of an antibiotic from a stock solution were made (2 wells per antibiotic concentration per strain). The two wells contained only supplemented media without any antibiotics […]. Strains were incubated overnight at 37 °C with continuous agitation. Additionally, plasmid containing strains were grown in the presence of 100 µg/mL ampicillin. The culture was diluted to yield a cell suspension with 5 ×10^5 cells/mL and then inoculated into the wells of the microtiter plate. To determine the medium’s background OD value, the first column of the 96-well plate contained solely MHB without inoculum. Prior to the measurement, the plates were incubated at 37 °C with continuous shaking at 900 rpm with 3 mm throw. OD600 values were determined in a microplate reader after 18 hours of incubation (Biotek Synergy 2). The minimum inhibitory concentration (MIC) was determined as the lowest concentration of antibiotic at which the OD600 values were less than 0.05 after subtracting the background value. The log2 of the relative MIC was computed using the following equation:2 log2relativeMICpUCacrAB=MICpUCacrAB/MICpUC118 3 log2relativeMICΔacrB=MICΔacrB/MICwt

[2] = system: E. coli ATCC 25922 (SEN) and E. coli NCTC13846 (MDR); assay: Adaptive laboratory evolution (ALE), relative MIC of evolved lines; format: cell-based, Escherichia coli
Excerpt: Using the same set of bacterial strains, we initiated adaptive laboratory evolution with the aim to maximize the level of antibiotic resistance in the populations achieved during a longer, but fixed time period.
An established protocol for adaptive laboratory evolution[46],[73] was followed to propagate populations with the highest resistance levels. Starting with an antibiotic concentration that caused approximately 50% growth inhibition, ten parallel populations for each antibiotic-ancestor strain combination were grown for 72 hours at 37 °C with continuous shaking (300 RPM). MHB broth medium was used unless stated otherwise. After each incubation, 20 µl of each culture was transferred to four new wells containing fresh medium with increasing antibiotic concentrations (0.5×, 1×, 1.5×, and 2.5× the previous concentration) in a chessboard layout to monitor potential cross-contamination. Growth was monitored by measuring OD600 using a Biotek Synergy 2 microplate reader, and only populations grown in the highest drug concentration with an OD600 > 0.2 were transferred further.
A robotic liquid handling system was used to automatically prepare a 11 to 16-step serial dilution in 384-well microtiter plates (Greiner). A final concentration of 5 × 10^5 bacterial cells per mL were inoculated into each well containing 60 µL MHB medium. Bacterial cultures were incubated at 37 °C with continuous shaking (Infors shaker, 900 rpm with 3 mm throw) for 18 hours (2 replicates from each). Cell growth was monitored by measuring the optical density (OD600 values, using Biotek Synergy microplate reader). MIC was defined as the antibiotic concentration of complete growth inhibition (i.e., OD600 < 0.05). Relative MIC was calculated as follows:1 relativeMIC=MICevolved/MICancestor […]
Supplementary Figure 4. Resistance levels following adaptive laboratory evolution across bacterial strains. The level of resistance was measured as the fold change in relative MIC between evolved and ancestral strains after ~60 days of adaptive laboratory evolution. Data are grouped by bacterial strain (A. baumannii (AB), E. coli (EC), K. pneumoniae (KP), and P. aeruginosa (PA)) and categorized as either multidrug-resistant (MDR) or sensitive (SEN). Each data point represents a laboratory evolved line, and boxplots show the median, first and third quartiles, with whiskers indicating the 5th and 95th percentiles.
Statistical analysis was performed using two-sided Dunn’s post-hoc test with Benjamini-Hochberg correction for multiple comparisons (****/ ***/ **/ * indicates p < 0.0001/ 0.001/ 0.01/ 0.05). For detailed information on antibiotic and bacterial species, see Supplementary Table 1. For mode of action groups, refer to Table 1. Source data are provided as a Source Data file.
(1 picture or pasted object on this page, not shown here)

[3] = EC-MDR (Escherichia coli NCTC 13846), evolved line 6 adapted to the named antibiotic
[4] = EC-MDR (Escherichia coli NCTC 13846), evolved line 7 adapted to the named antibiotic
[5] = EC-MDR (Escherichia coli NCTC 13846), evolved line 9 adapted to the named antibiotic
[6] = EC-MDR, Escherichia coli NCTC 13846, evolved line 1 versus ancestor
[7] = EC-MDR, Escherichia coli NCTC 13846, evolved line 2 versus ancestor
[8] = EC-MDR, Escherichia coli NCTC 13846, evolved line 3 versus ancestor
[9] = EC-MDR, Escherichia coli NCTC 13846, evolved line 4 versus ancestor
[10] = EC-MDR, Escherichia coli NCTC 13846, evolved line 6 versus ancestor
[11] = EC-MDR, Escherichia coli NCTC 13846, evolved line 7 versus ancestor
[12] = EC-MDR, Escherichia coli NCTC 13846, evolved line 8 versus ancestor
[13] = EC-MDR, Escherichia coli NCTC 13846, evolved line 9 versus ancestor
[14] = EC-SEN (Escherichia coli ATCC 25922), evolved line 2 adapted to the named antibiotic
[15] = EC-SEN (Escherichia coli ATCC 25922), evolved line 4 adapted to the named antibiotic
[16] = EC-SEN (Escherichia coli ATCC 25922), evolved line 5 adapted to the named antibiotic
[17] = EC-SEN, Escherichia coli ATCC 25922, evolved line 2 versus ancestor
[18] = EC-SEN, Escherichia coli ATCC 25922, evolved line 4 versus ancestor
[19] = EC-SEN, Escherichia coli ATCC 25922, evolved line 5 versus ancestor
[20] = EC-SEN, Escherichia coli ATCC 25922, evolved line 7 versus ancestor
[21] = EC-SEN, Escherichia coli ATCC 25922, evolved line 8 versus ancestor
[22] = EC-SEN, Escherichia coli ATCC 25922, evolved line 10 versus ancestor

SMILES: CNC(C)C1CCC(N)C(OC2C(N)CC(N)C(OC3OCC(C)(O)C(NC)C3O)C2O)O1 (stereo not drawn) [Gentamicin]
- Relative MIC (log2) ([1]; replicate 1): 0
- Relative MIC (log2) ([1]; replicate 2): 0
- Relative MIC (log2) ([1]; replicate 3): 0
- Relative MIC (log10) ([2]; EC-MDR (Escherichia coli NCTC 13846), evolved line 3 adapted to the named antibiotic): 1.806
- Relative MIC (log10) ([2]; EC-MDR (Escherichia coli NCTC 13846), evolved line 5 adapted to the named antibiotic): 1.806
- Relative MIC (log10) [2, 3]: 1.806
- Relative MIC (log10) [2, 4]: 1.505
- Relative MIC (log10) [2, 5]: 1.806
- Relative MIC [2, 6]: 64
- Relative MIC [2, 7]: 32
- Relative MIC [2, 8]: 64
- Relative MIC [2, 9]: 64
- Relative MIC ([2]; EC-MDR, Escherichia coli NCTC 13846, evolved line 5 versus ancestor): 64
- Relative MIC [2, 10]: 64
- Relative MIC [2, 11]: 32
- Relative MIC [2, 12]: 64
- Relative MIC [2, 13]: 64
- Relative MIC (log10) [2, 14]: 1.505
- Relative MIC (log10) [2, 15]: 2.107
- Relative MIC (log10) [2, 16]: 1.806
- Relative MIC (log10) ([2]; EC-SEN (Escherichia coli ATCC 25922), evolved line 6 adapted to the named antibiotic): 2.107
- Relative MIC (log10) ([2]; EC-SEN (Escherichia coli ATCC 25922), evolved line 9 adapted to the named antibiotic): 1.806
- Relative MIC [2, 17]: 32
- Relative MIC ([2]; EC-SEN, Escherichia coli ATCC 25922, evolved line 3 versus ancestor): 32
- Relative MIC [2, 18]: 128
- Relative MIC [2, 19]: 64
- Relative MIC ([2]; EC-SEN, Escherichia coli ATCC 25922, evolved line 6 versus ancestor): 128
- Relative MIC [2, 20]: 32
- Relative MIC [2, 21]: 64
- Relative MIC ([2]; EC-SEN, Escherichia coli ATCC 25922, evolved line 9 versus ancestor): 64
- Relative MIC [2, 22]: 16
- Relative MIC ([2]; Escherichia coli ATCC 25922 (EC-SEN), evolved line 2): 32
- Relative MIC ([2]; Escherichia coli ATCC 25922 (EC-SEN), evolved line 3): 32
- Relative MIC ([2]; Escherichia coli ATCC 25922 (EC-SEN), evolved line 4): 128
- Relative MIC ([2]; Escherichia coli ATCC 25922 (EC-SEN), evolved line 5): 64
- Relative MIC ([2]; Escherichia coli ATCC 25922 (EC-SEN), evolved line 6): 128
- Relative MIC ([2]; Escherichia coli ATCC 25922 (EC-SEN), evolved line 7): 32
- Relative MIC ([2]; Escherichia coli ATCC 25922 (EC-SEN), evolved line 8): 64
- Relative MIC ([2]; Escherichia coli ATCC 25922 (EC-SEN), evolved line 9): 64
- Relative MIC ([2]; Escherichia coli ATCC 25922 (EC-SEN), evolved line 10): 16
- Relative MIC ([2]; Escherichia coli NCTC 13846 (EC-MDR), evolved line 1): 64
- Relative MIC ([2]; Escherichia coli NCTC 13846 (EC-MDR), evolved line 2): 32
- Relative MIC ([2]; Escherichia coli NCTC 13846 (EC-MDR), evolved line 3): 64
- Relative MIC ([2]; Escherichia coli NCTC 13846 (EC-MDR), evolved line 4): 64
- Relative MIC ([2]; Escherichia coli NCTC 13846 (EC-MDR), evolved line 5): 64
- Relative MIC ([2]; Escherichia coli NCTC 13846 (EC-MDR), evolved line 6): 64
- Relative MIC ([2]; Escherichia coli NCTC 13846 (EC-MDR), evolved line 7): 32
- Relative MIC ([2]; Escherichia coli NCTC 13846 (EC-MDR), evolved line 8): 64
- Relative MIC ([2]; Escherichia coli NCTC 13846 (EC-MDR), evolved line 9): 64

SMILES: O=c1ccc2ncc(=O)n3c2n1C[C@H]3CN1CCC(NCc2cc3c(cn2)OCCC3)CC1 [Gepotidacin]
- Relative MIC (log2) ([1]; replicate 1): -4
- Relative MIC (log2) ([1]; replicate 2): -4
- Relative MIC (log2) ([1]; replicate 3): -4
- Relative MIC ([2]; EC-MDR (Escherichia coli NCTC 13846), evolved line 2): 32
- Relative MIC (log10) ([2]; EC-MDR (Escherichia coli NCTC 13846), evolved line 2 adapted to the named antibiotic): 1.505
- Relative MIC ([2]; EC-MDR (Escherichia coli NCTC 13846), evolved line 4): 16
- Relative MIC (log10) ([2]; EC-MDR (Escherichia coli NCTC 13846), evolved line 4 adapted to the named antibiotic): 1.204
- Relative MIC (log10) [2, 3]: 1.505
- Relative MIC (log10) [2, 4]: 1.505
- Relative MIC ([2]; EC-MDR (Escherichia coli NCTC 13846), evolved line 8): 16
- Relative MIC ([2]; EC-MDR (Escherichia coli NCTC 13846), evolved line 9): 32
- Relative MIC (log10) [2, 5]: 1.505
- Relative MIC ([2]; EC-MDR (Escherichia coli NCTC 13846), evolved line 10): 32
- Relative MIC [2, 6]: 16
- Relative MIC [2, 7]: 32
- Relative MIC [2, 8]: 8
- Relative MIC [2, 9]: 16
- Relative MIC [2, 10]: 32
- Relative MIC [2, 11]: 32
- Relative MIC [2, 12]: 16
- Relative MIC [2, 13]: 32
- Relative MIC ([2]; EC-MDR, Escherichia coli NCTC 13846, evolved line 10 versus ancestor): 32
- Relative MIC ([2]; EC-MDR, Escherichia coli NCTC 13846, evolved line 1): 16
- Relative MIC ([2]; EC-MDR, Escherichia coli NCTC 13846, evolved line 3): 8
- Relative MIC ([2]; EC-MDR, Escherichia coli NCTC 13846, evolved line 6): 32
- Relative MIC ([2]; EC-MDR, Escherichia coli NCTC 13846, evolved line 7): 32
- Relative MIC (log10) ([2]; EC-SEN (Escherichia coli ATCC 25922), evolved line 1 adapted to the named antibiotic): 2.107
- Relative MIC (log10) [2, 14]: 1.806
- Relative MIC ([2]; EC-SEN (Escherichia coli ATCC 25922), evolved line 4): 128
- Relative MIC (log10) [2, 15]: 2.107
- Relative MIC ([2]; EC-SEN (Escherichia coli ATCC 25922), evolved line 5): 128
- Relative MIC (log10) [2, 16]: 2.107
- Relative MIC ([2]; EC-SEN (Escherichia coli ATCC 25922), evolved line 7): 64
- Relative MIC ([2]; EC-SEN (Escherichia coli ATCC 25922), evolved line 8): 4
- Relative MIC ([2]; EC-SEN (Escherichia coli ATCC 25922), evolved line 10): 128
- Relative MIC ([2]; EC-SEN, Escherichia coli ATCC 25922, evolved line 1 versus ancestor): 128
- Relative MIC [2, 17]: 64
- Relative MIC [2, 18]: 128
- Relative MIC [2, 19]: 128
- Relative MIC [2, 20]: 64
- Relative MIC [2, 21]: 4
- Relative MIC [2, 22]: 128
- Relative MIC ([2]; EC-SEN, Escherichia coli ATCC 25922, evolved line 1): 128
- Relative MIC ([2]; EC-SEN, Escherichia coli ATCC 25922, evolved line 2): 64
